Measured values as given in US20260035387A1 (BIOGEN MA INC., priority 2022, published 2026).

Tested on: mutant Huntington (HTT) protein
Assay: HTT Mutant HTRF iPSC assay (mHTT protein lowering)
Type: cell-based
Details: human iPSC derived from a HTT patient with a poly-Q49 mutation

Row | Structure (SMILES) | IC50 [µM]
1 | Cc1cn2cc(NC(=O)c3cc4ccc(N5CC6CCC5CN6C)nc4s3)ccc2n1 (stereo not drawn) [Compound 27, 6-(5-methyl-2,5-diazabicyclo[2.2.2]octan-2-yl)-N-(2-methylimidazo[1,2-a]pyridin-6-yl)thieno[2,3-b]pyridine-2-carboxamide] | 0.1 to 1
2 | CC(=O)N1C[C@@H]2CN(c3ccc4cc(C(=O)Nc5ccc6nc(C)cn6c5)sc4n3)C[C@@H]2C1 [Compound 29, 6-((3aR,6aS)-5-acetylhexahydropyrrolo[3,4-c]pyrrol-2(1H)-yl)-N-(2-methylimidazo[1,2-a]pyridin-6-yl)thieno[2,3-b]pyridine-2-carboxamide] | 1 to 9
3 | Cc1cn2cc(NC(=O)c3cc4ccc(N5CCN(C)c6ncccc6C5)nc4s3)ccc2n1 [Compound 31, 6-(1-methyl-1,2,3,5-tetrahydro-4H-pyrido[2,3-e][1,4]diazepin-4-yl)-N-(2-methylimidazo[1,2-a]pyridin-6-yl)thieno[2,3-b]pyridine-2-carboxamide] | 0.1 to 1
4 | Cc1cn2cc(NC(=O)c3cc4ccc(N5CC6CCC(N(C)C)CC6C5)nc4s3)ccc2n1 (stereo not drawn) [Compound 32, 6-(5-(dimethylamino)octahydro-2H-isoindol-2-yl)-N-(2-methylimidazo[1,2-a]pyridin-6-yl)thieno[2,3-b]pyridine-2-carboxamide] | 1 to 9
5 | Cc1cn2cc(NC(=O)c3cc4ccc(N5C[C@@H](C)N(CC(F)(F)F)[C@@H](C)C5)nc4s3)ccc2n1 [Compound 33] | 0.1 to 1
6 | Cc1cn2cc(NC(=O)c3cc4ccc(N5CCC(N6CC(C)(C)C6)C5)nc4s3)ccc2n1 (stereo not drawn) [Compound 35, 6-(3-(3,3-dimethylazetidin-1-yl)pyrrolidin-1-yl)-N-(2-methylimidazo[1,2-a]pyridin-6-yl)thieno[2,3-b]pyridine-2-carboxamide] | 0.1 to 1
7 | Cc1cn2cc(NC(=O)c3cc4ccc(N5CCC6C(CCCN6C)C5)nc4s3)ccc2n1 (stereo not drawn) [Compound 36, N-(2-methylimidazo[1,2-a]pyridin-6-yl)-6-(1-methyloctahydro-1,6-naphthyridin-6(2H)-yl)thieno[2,3-b]pyridine-2-carboxamide] | 0.1 to 1
8 | Cc1cn2cc(NC(=O)c3cc4ccc(N(C)C5CN6CCC5CC6)nc4s3)ccc2n1 (stereo not drawn) [Compound 38, 6-(methyl(quinuclidin-3-yl)amino)-N-(2-methylimidazo[1,2-a]pyridin-6-yl)thieno[2,3-b]pyridine-2-carboxamide] | 0.1 to 1
9 | Cc1cn2cc(NC(=O)c3cc4ccc(Nc5ccc(CN6CCCC6)cc5)nc4s3)ccc2n1 [Compound 39, N-(2-methylimidazo[1,2-a]pyridin-6-yl)-6-((4-(pyrrolidin-1-ylmethyl)phenyl)amino)thieno [2,3-b]pyridine-2-carboxamide] | 1 to 9
10 | Cc1cn2cc(NC(=O)c3cc4ccc(N5CCCN(C)CC5)nc4s3)ccc2n1 [Compound 40, 6-(4-methyl-1,4-diazepan-1-yl)-N-(2-methylimidazo[1,2-a]pyridin-6-yl)thieno[2,3-b]pyridine-2-carboxamide] | 0.1 to 1
11 | Cc1cn2cc(NC(=O)c3cc4ccc(NCC(C)(C)CN(C)C)nc4s3)ccc2n1 [Compound 41, 6-((3-(dimethylamino)-2,2-dimethylpropyl)amino)-N-(2-methylimidazo[1,2-a]pyridin-6-yl)thieno[2,3-b]pyridine-2-carboxamide] | 1 to 9
12 | Cc1cn2cc(NC(=O)c3cc4ccc(Nc5cccc(N6CC(C)(C)C6)c5)nc4s3)ccc2n1 [Compound 42, 6-((3-(3,3-dimethylazetidin-1-yl)phenyl)amino)-N-(2-methylimidazo[1,2-a]pyridin-6-yl)thieno[2,3-b]pyridine-2-carboxamide] | 1 to 9
13 | Cc1cn2cc(NC(=O)c3cc4ccc(Nc5ccc(N6CC(C)(C)C6)cc5)nc4s3)ccc2n1 [Compound 44, 6-((4-(3,3-dimethylazetidin-1-yl)phenyl)amino)-N-(2-methylimidazo[1,2-a]pyridin-6-yl)thieno[2,3-b]pyridine-2-carboxamide] | 1 to 9
14 | Cc1cn2cc(NC(=O)c3cc4ccc(N5CC6CCCN6CC5C)nc4s3)ccc2n1 (stereo not drawn) [Compound 45, 6-(3-methylhexahydropyrrolo[1,2-a]pyrazin-2(1H)-yl)-N-(2-methylimidazo[1,2-a]pyridin-6-yl)thieno[2,3-b]pyridine-2-carboxamide] | 0.1 to 1
15 | CCN1Cc2cccc(Nc3ccc4cc(C(=O)Nc5ccc6nc(C)cn6c5)sc4n3)c2C1 [Compound 46, 6-((2-ethylisoindolin-4-yl)amino)-N-(2-methylimidazo[1,2-a]pyridin-6-yl)thieno[2,3-b]pyridine-2-carboxamide] | 1 to 9
16 | Cc1cn2cc(NC(=O)c3cc4ccc(Nc5ccc6c(c5)N(C)CCN(C)C6)nc4s3)ccc2n1 [Compound 47, 6-((1,4-dimethyl-2,3,4,5-tetrahydro-1H-benzo[e][1,4]diazepin-8-yl)amino)-N-(2-methylimidazo[1,2-a]pyridin-6-yl)thieno[2,3-b]pyridine-2-carboxamide] | 1 to 9
17 | Cc1cn2cc(NC(=O)c3cc4ccc(N5CCC5CN(C)C)nc4s3)ccc2n1 (stereo not drawn) [Compound 48, 6-(2-((dimethylamino)methyl)azetidin-1-yl)-N-(2-methylimidazo[1,2-a]pyridin-6-yl)thieno[2,3-b]pyridine-2-carboxamide] | 1 to 9
18 | CN(C)C1CCN(c2ccc3cc(C(=O)Nc4ccc5[nH]c(=O)n(C)c5c4)sc3n2)C1 (stereo not drawn) [Compound 49, 6-(3-(dimethylamino)pyrrolidin-1-yl)-N-(3-methyl-2-oxo-2,3-dihydro-1H-benzo[d]imidazol-5-yl)thieno[2,3-b]pyridine-2-carboxamide] | 1 to 9
19 | Cc1cn2cc(NC(=O)c3cc4ccc(N5CC[C@H](N(C)C)C5)nc4s3)nc(C)c2n1 [Compound 50, (S)-6-(3-(dimethylamino)pyrrolidin-1-yl)-N-(2,8-dimethylimidazo[1,2-a]pyrazin-6-yl)thieno[2,3-b]pyridine-2-carboxamide] | 0.1 to 1
20 | Cc1cn2cc(NC(=O)c3cc4ccc(N5CC[C@@H](N(C)C)C5)nc4s3)nc(C)c2n1 [Compound 51, (R)-6-(3-(dimethylamino)pyrrolidin-1-yl)-N-(2,8-dimethylimidazo[1,2-a]pyrazin-6-yl)thieno[2,3-b]pyridine-2-carboxamide] | < 0.1
21 | Cc1cn2nc(NC(=O)c3cc4ccc(N5CC[C@H](N(C)C)C5)nc4s3)ccc2n1 [Compound 52, (S)-6-(3-(dimethylamino)pyrrolidin-1-yl)-N-(2-methylimidazo[1,2-b]pyridazin-6-yl)thieno[2,3-b]pyridine-2-carboxamide] | 0.1 to 1
22 | Cc1cn2nc(NC(=O)c3cc4ccc(N5CC[C@@H](N(C)C)C5)nc4s3)ccc2n1 [Compound 53, (R)-6-(3-(dimethylamino)pyrrolidin-1-yl)-N-(2-methylimidazo[1,2-b]pyridazin-6-yl)thieno[2,3-b]pyridine-2-carboxamide] | 1 to 9
23 | Cc1cn2cc(NC(=O)c3cc4ccc(N5CC[C@H](N(C)C)C5)nc4s3)cc(F)c2n1 [Compound 54, 6-[(3S)-3-(dimethylamino)pyrrolidin-1-yl]-N-(8-fluoro-2-methyl-imidazo[1,2-a]pyridin-6-yl)thieno[2,3-b]pyridine-2-carboxamide] | < 0.1
24 | Cc1cn2cc(NC(=O)c3cc4ccc(N5CC[C@@H](N(C)C)C5)nc4s3)cc(F)c2n1 [Compound 55, 6-[(3R)-3-(dimethylamino)pyrrolidin-1-yl]-N-(8-fluoro-2-methyl-imidazo[1,2-a]pyridin-6-yl)thieno[2,3-b]pyridine-2-carboxamide] | < 0.1
